In patent US20210330611A1, “THERAPY FOR NEUROLOGICAL DISEASES/DISORDERS” (priority 2020, published 2021):
Where two headings read alike, the source gives them in different places.

Columns and labels:
[1] = system: fibrin- and LPS-induced microglia activation; assay: cells; assay type: cell-based, rat
[2] = system: LPS-induced microglia activation; assay: Image-based assay of LPS-induced microglia activation (HTS and dose response); assay type: cell-based, rat; details: for inhibition at 10 µM: read-out: LPS % inhibition
primary rat microglia [3] = assay: Cell toxicity (dead cells, size <150 μm2) in coated fibrin (cFib) assay;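 also: share of dead cells sized under 150 µm2 at 10 µM in fibrin-stimulated microglia HTS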
[4] = system: fibrin-induced microglia activation; assay: Image-based assay of fibrin-induced microglia activation (HTS and dose response); assay type: cell-based, rat; details: for inhibition at 10 µM: read-out: Fibrin % inhibition
primary rat microglia [5] = assay: Cell toxicity (dead cells, size <150 μm2) in LPS assay
[6] = quadrant by fibrin and LPS inhibition in HTS of 1907 compounds
[7] = Rattus norvegicus, Microglia, 48 h, primary microglia HTS, LPS stimulation, increased cell size (>800 μm^2) as marker of activation
[8] = primary microglia HTS, fibrin stimulation, decreased size (<150 μm^2) as marker of toxicity
[9] = Rattus norvegicus, Microglia, primary microglia HTS, fibrin stimulation, increased cell size (>800 μm^2) as marker of activation
[10] = primary microglia HTS, LPS stimulation, decreased size (<150 μm^2) as marker of toxicity
[11] = Rattus norvegicus, Microglia, primary HTS, 10 μM, LPS-stimulated primary microglia
[12] = primary HTS, 10 μM, fibrin assay, dead cells size <150 μm2
[13] = Rattus norvegicus, Microglia, primary HTS, 10 μM, fibrin-stimulated primary microglia
[14] = primary HTS, 10 μM, LPS assay, dead cells size <150 μm2
[15] = primary microglia HTS, fibrin stimulation, toxicity = cell size <150 μm2
[16] = primary microglia HTS, LPS stimulation, toxicity = cell size <150 μm2

Cc1ccc(Cl)c(Nc2ccccc2C(=O)O)c1Cl [Meclofenamic Acid]
Quadrant (FIG. 5b) [1, 6]: Q4
inhibition at 10 µM [2, 7]: 14%
Fibrin % cell toxicity (primary rat microglia [3]; [8]): 1%
inhibition at 10 µM [4, 9]: 12%
LPS % cell toxicity (primary rat microglia [5]; [10]): 0%

Cc1cnc(NC(=O)C2=C(O)c3ccccc3S(=O)(=O)N2C)s1 [Meloxicam]
Quadrant (FIG. 5b) [1, 6]: Q4
inhibition at 10 µM [2, 7]: 20%
Fibrin % cell toxicity (primary rat microglia [3]; [8]): 1%
inhibition at 10 µM [4, 9]: -1%
LPS % cell toxicity (primary rat microglia [5]; [10]): 0%

COc1ccc2[nH]c([S+]([O-])Cc3ncc(C)c(OC)c3C)nc2n1 (centres unmarked) [Tenatoprazole]
Quadrant (FIG. 5b) ([1]; HTS of 1907 compounds, quadrant by fibrin and LPS inhibition): Q4
inhibition at 10 µM ([2]; Rattus norvegicus, Microglia, primary microglia HTS, 10 μM, LPS-stimulated, cell size >800 μm^2 as marker of activation): 9%
Fibrin % cell toxicity (primary rat microglia [3]; primary microglia HTS, 10 μM, fibrin assay, cell size <150 μm^2 as marker of toxicity): 1%
inhibition at 10 µM ([4]; Rattus norvegicus, Microglia, primary microglia HTS, 10 μM, fibrin-stimulated, cell size >800 μm^2 as marker of activation): -17%
LPS % cell toxicity (primary rat microglia [5]; primary microglia HTS, 10 μM, LPS assay, cell size <150 μm^2 as marker of toxicity): 0%

CC(C)CCC[C@@H](C)[C@H]1CC[C@H]2[C@@H]3CC=C4C[C@@H](O)CC[C@]4(C)[C@H]3CC[C@]12C [Cholesterol]
Quadrant (FIG. 5b) ([1]; primary HTS, 10 μM): Q4
inhibition at 10 µM [2, 11]: 9%
Fibrin % cell toxicity (primary rat microglia [3]; [12]): 0%
inhibition at 10 µM [4, 13]: 4%
LPS % cell toxicity (primary rat microglia [5]; [14]): 0%

CC[N+](C)(CC)CCOC(=O)C(O)(c1ccccc1)C1CCCCC1 (centres unmarked) [Oxyphenonium]
Quadrant (FIG. 5b) [1, 6]: Q4
inhibition at 10 µM [2, 7]: 30%
Fibrin % cell toxicity (primary rat microglia [3]; [8]): 1%
inhibition at 10 µM [4, 9]: -14%
LPS % cell toxicity (primary rat microglia [5]; [10]): 1%

NNC(=O)c1ccncc1 [Isoniazid]
Quadrant (FIG. 5b) [1, 6]: Q4
inhibition at 10 µM ([2]; Rattus norvegicus, Microglia, 48 h, primary microglia HTS, LPS stimulation, activation = cell size >800 μm2): 19%
Fibrin % cell toxicity (primary rat microglia [3]; [15]): 1%
inhibition at 10 µM ([4]; Rattus norvegicus, Microglia, primary microglia HTS, fibrin stimulation, activation = cell size >800 μm2): -29%
LPS % cell toxicity (primary rat microglia [5]; [16]): 0%

O=C(OC[C@H]1O[C@@H](OC(=O)c2cc(O)c(O)c(OC(=O)c3cc(O)c(O)c(O)c3)c2)[C@H](OC(=O)c2cc(O)c(O)c(OC(=O)c3cc(O)c(O)c(O)c3)c2)[C@@H](OC(=O)c2cc(O)c(O)c(OC(=O)c3cc(O)c(O)c(O)c3)c2)[C@@H]1OC(=O)c1cc(O)c(O)c(OC(=O)c2cc(O)c(O)c(O)c2)c1)c1cc(O)c(O)c(OC(=O)c2cc(O)c(O)c(O)c2)c1 [Tannic acid, reference compound]
Quadrant (FIG. 5b) ([1]; Table 2, screen at 10 μM): Q4
Activity ([1]; Table 7, fib = fibrin, LPS, tox = toxicity): fib/LPS
Quadrant (FIG. 5b) [1, 6]: Q4
inhibition at 10 µM [2, 7]: 32%
IC50 ([2]; Rattus norvegicus, Microglia, Table 7, read-out: LPS_IC50): 4.38 µM
Fibrin % cell toxicity (primary rat microglia [3]; [8]): 0%
IC50 ([4]; Rattus norvegicus, Microglia, Table 7, read-out: fib_IC50): 4.96 µM
inhibition at 10 µM [4, 9]: -60%
LPS % cell toxicity (primary rat microglia [5]; [10]): 1%

CC(=O)O[C@H]1C[C@H](O[C@H]2[C@@H](O)C[C@H](O[C@H]3[C@@H](O)C[C@H](O[C@H]4CC[C@@]5(C)[C@H](CC[C@@H]6[C@@H]5C[C@@H](O)[C@]5(C)[C@@H](C7=CC(=O)OC7)CC[C@]65O)C4)O[C@@H]3C)O[C@@H]2C)O[C@H](C)[C@H]1O[C@@H]1O[C@H](CO)[C@@H](O)[C@H](O)[C@H]1O [Lanatoside C]
Quadrant (FIG. 5b) [1, 6]: Q4
LPS % inhibition ([2]; primary microglia HTS, LPS stimulation, activation = cell size >800 μm2): 35%
Fibrin % cell toxicity (primary rat microglia [3]; [15]): 1%
Fibrin % inhibition ([4]; primary microglia HTS, fibrin stimulation, activation = cell size >800 μm2): 17%
LPS % cell toxicity (primary rat microglia [5]; [16]): 1%

O=C(O)C1=C(CSc2nnnn2CS(=O)(=O)O)CS[C@@H]2[C@H](NC(=O)[C@H](O)c3ccccc3)C(=O)N12 [Cefonicid Sodium]
Quadrant (FIG. 5b) ([1]; primary HTS, 10 μM): Q4
inhibition at 10 µM [2, 11]: 15%
Fibrin % cell toxicity (primary rat microglia [3]; [12]): 0%
inhibition at 10 µM [4, 13]: -11%
LPS % cell toxicity (primary rat microglia [5]; [14]): 0%

CCN(CC)C(=O)c1cccnc1 [Nikethamide]
Quadrant (FIG. 5b) [1, 6]: Q4
inhibition at 10 µM [2, 7]: -4%
Fibrin % cell toxicity (primary rat microglia [3]; [8]): 0%
inhibition at 10 µM [4, 9]: 12%
LPS % cell toxicity (primary rat microglia [5]; [10]): 0%

Chlorophyllide Cu Complex Na Salt
Quadrant (FIG. 5b) ([1]; primary HTS, 10 μM): Q4
LPS % inhibition ([2]; primary HTS, 10 μM, LPS-stimulated primary microglia): 9%
Fibrin % cell toxicity (primary rat microglia [3]; [12]): 0%
Fibrin % inhibition ([4]; primary HTS, 10 μM, fibrin-stimulated primary microglia): −36%
LPS % cell toxicity (primary rat microglia [5]; [14]): 0%
